According to patent publication US12264185B2, “Stabilized BCL9 peptides for treatment of aberrant Wnt signaling” (WntRx Pharmaceuticals Inc., priority 2015, dated 2025):
pIC50, pKd: −log10 of the molar value.

Legend:
[1] = Toxicokinetics, 14 days i.p., female balb/c mice; settings: for half-life: female, balb/c, mouse, plasma, ip
NCI-H1299-Luc cells = test: NCI-H1299-Luc orthotopic model in balb/c nude mice; type: in vivo; settings: 15 mg/kg i.v. daily, 10 days
From the text: Orthotopic mouse models are useful to visualize the effect of an anti-tumor compound on a tumor implanted in a mouse and to assess the effect of the compound on tumor metastasis. An orthotropic model utilizing the NCI-H1299-Luc cell line (non-small-cell lung carcinoma cell line expressing luciferase) was selected for this experiment. Upon uptake of luciferin substrate, these cells are capable of producing bioluminescence. Proliferation of the NCI-H1299 cell line is dependent on Pygopus (Pygo) 2/β-catenin transcription activity, in which TCF-1 transcription factors (BCL9, β-cat and Pygo) form a transcription complex to initiate transcription.
The mice were about 5 weeks of age. NCI-H1299-Luc cells (5×10^6) in 50 μL in PBS were injected into each mouse lung with a syringe.
The bioluminescence intensity (total Flux [p/s]) of each mouse was measured periodically throughout the study according to manufacturer protocol (Xenogen ivis imaging system, PerkinElmer).

HCT116 cells = type: cell-based
Experimental: The additional polypeptides were tested in a CellTiterGlo luminescent cell viability assay (Promega). ICG001 was used as a positive control in this assay.

β-catenin = target: T1, β-catenin (Homo sapiens, UniProt P35222); test: HTRF binding assay; settings: WX-024 coupled to biotin
T1 sequence (P35222 1-781): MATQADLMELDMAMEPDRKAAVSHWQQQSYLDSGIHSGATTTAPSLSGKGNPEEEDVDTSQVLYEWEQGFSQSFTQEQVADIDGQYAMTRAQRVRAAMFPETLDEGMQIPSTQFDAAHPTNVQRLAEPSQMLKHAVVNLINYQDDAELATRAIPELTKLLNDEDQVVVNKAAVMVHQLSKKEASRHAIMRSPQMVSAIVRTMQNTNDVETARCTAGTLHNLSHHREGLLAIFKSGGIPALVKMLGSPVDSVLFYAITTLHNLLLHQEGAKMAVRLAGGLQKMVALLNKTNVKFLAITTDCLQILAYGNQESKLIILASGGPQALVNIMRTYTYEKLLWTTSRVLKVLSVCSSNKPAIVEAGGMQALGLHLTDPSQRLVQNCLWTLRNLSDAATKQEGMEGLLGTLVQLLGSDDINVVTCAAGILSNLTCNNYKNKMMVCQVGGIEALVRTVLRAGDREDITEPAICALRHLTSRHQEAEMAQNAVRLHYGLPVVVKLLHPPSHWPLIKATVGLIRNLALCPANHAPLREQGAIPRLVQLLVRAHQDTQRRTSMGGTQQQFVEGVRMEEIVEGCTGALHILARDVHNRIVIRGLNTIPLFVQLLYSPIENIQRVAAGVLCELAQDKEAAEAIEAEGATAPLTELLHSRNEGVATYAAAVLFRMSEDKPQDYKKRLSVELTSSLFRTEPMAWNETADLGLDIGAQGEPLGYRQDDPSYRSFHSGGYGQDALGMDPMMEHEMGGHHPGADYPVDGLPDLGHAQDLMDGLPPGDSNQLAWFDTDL
From the text: HTRF assays provide a means of assaying protein-protein interactions in a high-throughput format, as discussed in Degorce et al., Curr Chemical Genom. 3, 22-32 (2009). In an HTRF assay to measure a protein-protein interaction, binding of 2 proteins brings an HTRF donor and acceptor fluorophore into close proximity and generates the fluorescence energy transfer (FRET) signal. Each protein of the interaction is associated with the donor or the acceptor by an antibody reaction.
FIG. 6A provides a schematic to depict the basis of the HTRF assay. In the HTRF assay for β-catenin (Cisbio), β-catenin is bound by an XL665-coupled antibody (ab) against β-catenin. See Degorce (2009). β-catenin bound to an XL665-coupled antibody can interact with its binding partners, such as BCL9 or BCL9 peptides.
SA is a high-affinity binding partner to biotin and will tightly bind the SA-europium cryptate to the biotinylated stabilized polypeptides. Europium cryptate is an energy donor for an HTRF reaction. When not closely bound, there is no energy transfer between europium cryptate and XL665.
Histidine-tagged β-catenin, BCL9 peptide labeled with biotin, europium (Eu) labeled monoclonal antibody for histidine tag, and SA-XL665 were used in the HTRF assay. […] The reaction was incubated at room temperature for 1 hour and then the plate was read.

[2] = IP-10 mg/kg, after the first dosing (day 1)
[3] = IP-15 mg/kg, after the first dosing (day 1)
[4] = IP-20 mg/kg, after the first dosing (day 1)

CC[C@H](C)[C@@H]1NC(=O)[C@@](C)(NC(=O)[C@H](CCCNC(=N)N)NC(=O)[C@H](CC(C)C)NC(=O)[C@@H](NC(=O)[C@H](CCC(N)=O)NC(=O)[C@H](CC(C)C)NC(C)=O)[C@@H](C)O)CCCC=CCCC[C@@](C)(C(=O)N[C@@H](CC(C)C)C(=O)N[C@@H](Cc2ccc3ccccc3c2)C(N)=O)NC(=O)[C@H](CCCNC(=N)N)NC(=O)[C@H](CCC(N)=O)NC1=O [WX-024, LQTLRXaa1IQRXaa2L]
AUCINF [1, 2]: 117 µg·h/mL | AUClast [1, 2]: 114333 ng·h/mL | Cmax [1, 2]: 11390 ng/mL | Terminal t1/2 [1, 2]: 4.52 h | Tmax [1, 2]: 1.50 h | Cmax ([1]; IP-10 mg/kg, after the last dosing (day 14)): 11360 ng/mL | AUCINF [1, 3]: 129.1 µg·h/mL | AUClast [1, 3]: 118,033 hr*ng/mL | Cmax [1, 3]: 9767 ng/mL | Terminal t1/2 [1, 3]: 7.59 h | AUCINF [1, 4]: 175.333 µg·h/mL | AUClast [1, 4]: 162,333 hr*ng/mL | Cmax [1, 4]: 12733 ng/mL | Terminal t1/2 [1, 4]: 6.47 h | Tmax [1, 4]: 2.67 h | half-life ([1]; 10 mg/kg): 418 min | half-life ([1]; 15 mg/kg): 255 min | half-life ([1]; 20 mg/kg): 273 min | tumor formation and growth (bioluminescence total flux) (NCI-H1299-Luc cells): almost completely blocked tumor formation and growth in vivo | pIC50 (HCT116 cells): 5.72 | inhibition of cell growth (HCT116 cells; HCT116 cells, CellTiterGlo): particularly effective | pKd (β-catenin): 8.38
